Laboratory results: patent publication US10676527B2, “Methods and compositions for modulation of blood-neural barrier” (Ludwig Institute for Cancer Research Ltd, priority 2006, dated 2020)
Counter-ions that a name gives are not always drawn.

Experiments:
PDGFR-α = PDGFR-α (Homo sapiens, UniProt P16234); settings: known from the art; cited from earlier work
BBB = experiment: Evans Blue extravasation (BBB opening) after intraventricular injection; format: in vivo; settings: Example 1, FIG. 1; C57BL6 mice, 2 μl intraventricular, 3 μM, 1 hour after injection
Protocol: (§1) Wild type C57BL6 mice (10 Week old) were injected intraventricularly into the dorsal third ventricle with 2 μl of PBS, active PDGF-AA, PDGF-BB (both from Preprotech Inc.) and PDGF-CC (see below) (3 μM). Evans Blue was given intravenously immediately after the injection. One hour after the injection, the animals were perfused with PBS and the brain tissue was removed and processed for Evans Blue extravasation.
as §1, with “of either” for “of”, “PBS, wild type murine tPA (3 μM),” for “PBS,”, “active” for “active PDGF-AA, PDGF-BB (both from Preprotech Inc.) and”, “(3 μM), or wild type murine tPA (3 μM) plus active PDGF-CC” for “(see below)”
Wt C57BL6 mice (10 Week old) were injected intraventricularly with 3 μl of either PBS, wild type murine tPA (3 μM), wild type murine tPA (3 μM) with rabbit anti-PDGF-CC (150 μg/ml). Evans Blue was given intravenously immediately after the injection. One hour after the injection, the animals were perfused with PBS and the brain tissue was removed and processed for Evans Blue extravasation.

Sequence of PDGFR-α (P16234 24-1089, species assumed): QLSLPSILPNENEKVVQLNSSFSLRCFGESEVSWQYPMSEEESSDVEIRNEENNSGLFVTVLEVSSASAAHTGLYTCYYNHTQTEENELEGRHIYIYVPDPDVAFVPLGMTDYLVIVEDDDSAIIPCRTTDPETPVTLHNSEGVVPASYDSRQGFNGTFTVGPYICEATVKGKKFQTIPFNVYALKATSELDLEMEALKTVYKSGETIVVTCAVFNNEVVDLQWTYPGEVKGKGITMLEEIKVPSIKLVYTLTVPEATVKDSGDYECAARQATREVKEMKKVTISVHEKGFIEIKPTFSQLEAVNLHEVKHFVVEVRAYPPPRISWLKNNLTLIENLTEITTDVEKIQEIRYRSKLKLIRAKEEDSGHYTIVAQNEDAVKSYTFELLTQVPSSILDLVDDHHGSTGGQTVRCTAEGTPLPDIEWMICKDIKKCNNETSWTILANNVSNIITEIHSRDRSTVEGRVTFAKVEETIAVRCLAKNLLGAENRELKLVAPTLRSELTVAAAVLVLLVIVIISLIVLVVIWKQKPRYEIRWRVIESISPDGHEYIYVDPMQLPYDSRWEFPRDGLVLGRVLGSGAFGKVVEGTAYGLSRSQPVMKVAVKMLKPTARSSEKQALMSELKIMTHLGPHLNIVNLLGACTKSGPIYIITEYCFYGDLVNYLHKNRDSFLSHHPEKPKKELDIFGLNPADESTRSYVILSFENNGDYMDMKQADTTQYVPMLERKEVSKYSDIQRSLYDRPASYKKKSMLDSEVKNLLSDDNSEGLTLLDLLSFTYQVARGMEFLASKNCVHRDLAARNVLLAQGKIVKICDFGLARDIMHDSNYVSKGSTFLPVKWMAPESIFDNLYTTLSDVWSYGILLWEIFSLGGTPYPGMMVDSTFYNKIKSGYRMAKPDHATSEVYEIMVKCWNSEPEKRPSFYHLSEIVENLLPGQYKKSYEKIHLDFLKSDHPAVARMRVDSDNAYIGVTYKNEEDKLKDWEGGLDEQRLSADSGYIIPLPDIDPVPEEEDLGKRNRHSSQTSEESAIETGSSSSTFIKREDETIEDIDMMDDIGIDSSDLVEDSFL

Row | Compound | inhibition of PDGFR-α (PDGFR-α) | vascular permeability / opening of the BBB (Evans Blue extravasation) (BBB)
1 | Cc1ccc(NC(=O)c2ccc(CN3CCN(C)CC3)cc2)cc1Nc1nccc(-c2cccnc2)n1 [Gleevec®, imatinib mesylate] | at least partially inhibit | –
2 | PDGF-AA: active platelet-derived growth factor AA dimer (from Preprotech Inc.) | – | induce increased vascular permeability
